In publication PMC9950447, “Targeting USP10 induces degradation of oncogenic ANLN in esophageal squamous cell carcinoma” (Cell Death and Differentiation, 2022):
Values belong to the molecule of their own block, whether it stands above or below them.

Tests used:
[1] = biological target: T1, USP10 (Homo sapiens, UniProt Q14694); test: SPR (Biacore T200, His-USP10 immobilized on CM5 chip); supported by Ub-AMC inhibition of purified USP10 (IC50 […]); format: binding
T1 construct: His-USP10

[2] = biological target: recombinant GST-USP10 (human, UniProt Q14694-3 1-802); test: pull-down; in vitro GST pull down: GST-tagged protein bound to GST Bind Resin in GST lysis buffer, His-tagged proteins added, 4 °C for 4 h, six washes with PBST, western blot; settings: both partners purified
Sequence of recombinant GST-USP10 (Q14694 other isoform, or with tags, fused parts or gaps): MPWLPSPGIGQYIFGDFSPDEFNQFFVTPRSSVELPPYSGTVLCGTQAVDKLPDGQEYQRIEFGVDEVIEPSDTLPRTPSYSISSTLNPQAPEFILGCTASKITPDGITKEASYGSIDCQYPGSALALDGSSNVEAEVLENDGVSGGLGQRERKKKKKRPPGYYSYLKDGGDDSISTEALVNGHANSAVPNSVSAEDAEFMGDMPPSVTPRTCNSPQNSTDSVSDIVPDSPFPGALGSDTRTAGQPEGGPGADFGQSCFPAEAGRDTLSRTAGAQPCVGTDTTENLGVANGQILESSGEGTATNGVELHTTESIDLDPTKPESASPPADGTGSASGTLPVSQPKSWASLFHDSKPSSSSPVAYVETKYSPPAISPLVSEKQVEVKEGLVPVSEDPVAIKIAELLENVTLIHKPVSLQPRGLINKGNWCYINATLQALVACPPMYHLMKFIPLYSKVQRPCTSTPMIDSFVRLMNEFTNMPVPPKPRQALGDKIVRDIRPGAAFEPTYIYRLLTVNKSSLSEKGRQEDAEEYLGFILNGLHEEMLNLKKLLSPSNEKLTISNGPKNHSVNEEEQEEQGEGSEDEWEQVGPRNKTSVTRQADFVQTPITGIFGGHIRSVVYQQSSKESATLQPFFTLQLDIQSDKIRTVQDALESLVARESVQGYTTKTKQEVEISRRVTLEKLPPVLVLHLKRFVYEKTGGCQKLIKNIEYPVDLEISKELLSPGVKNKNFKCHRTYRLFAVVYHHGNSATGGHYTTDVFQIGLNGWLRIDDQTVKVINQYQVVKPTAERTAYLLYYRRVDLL

T1 sequence (Q14694 2-798): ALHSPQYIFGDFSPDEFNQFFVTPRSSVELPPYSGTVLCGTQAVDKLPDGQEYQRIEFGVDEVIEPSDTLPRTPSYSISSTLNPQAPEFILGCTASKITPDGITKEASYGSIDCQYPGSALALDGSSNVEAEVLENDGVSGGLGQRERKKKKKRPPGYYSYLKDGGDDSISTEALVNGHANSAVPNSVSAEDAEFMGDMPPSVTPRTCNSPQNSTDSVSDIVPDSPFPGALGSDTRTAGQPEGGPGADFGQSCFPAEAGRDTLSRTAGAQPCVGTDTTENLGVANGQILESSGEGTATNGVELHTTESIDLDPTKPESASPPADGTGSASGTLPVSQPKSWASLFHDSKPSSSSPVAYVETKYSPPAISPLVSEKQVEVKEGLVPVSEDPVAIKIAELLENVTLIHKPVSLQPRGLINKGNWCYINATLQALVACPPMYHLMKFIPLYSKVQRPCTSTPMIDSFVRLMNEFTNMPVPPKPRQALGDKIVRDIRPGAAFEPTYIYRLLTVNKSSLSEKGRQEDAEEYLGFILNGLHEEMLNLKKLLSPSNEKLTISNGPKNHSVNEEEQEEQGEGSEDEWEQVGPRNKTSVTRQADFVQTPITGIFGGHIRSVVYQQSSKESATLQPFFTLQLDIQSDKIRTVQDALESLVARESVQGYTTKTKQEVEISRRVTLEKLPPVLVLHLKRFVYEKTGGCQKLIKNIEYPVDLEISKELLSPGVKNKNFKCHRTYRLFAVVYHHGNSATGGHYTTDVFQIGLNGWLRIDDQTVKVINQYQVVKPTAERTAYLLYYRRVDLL

Kd [1]: ~27.5 µM
Molecule: CC1=C[C@H](C)C[C@H](C)[C@H](Cc2cnco2)OC(=O)/C(C)=C\[C@H](C)C[C@H](C)[C@H](Cc2cnco2)OC1=O [F806, FW-04-806]

binding result [2]: binds
B1: His-ANLN amino acids 1-454 (domain or fragment, human, UniProt Q9NQW6 1-454, looked up)
chain: MDPFTEKLLERTRARRENLQRKMAERPTAAPRSMTHAKRARQPLSEASNQQPLSGGEEKSCTKPSPSKKRCSDNTEVEVSNLENKQPVESTSAKSCSPSPVSPQVQPQAADTISDSVAVPASLLGMRRGLNSRLEATAASSVKTRMQKLAEQRRRWDNDDMTDDIPESSLFSPMPSEEKAASPPRPLLSNASATPVGRRGRLANLAATICSWEDDVNHSFAKQNSVQEQPGTACLSKFSSASGASARINSSSVKQEATFCSQRDGDASLNKALSSSADDASLVNASISSSVKATSPVKSTTSITDAKSCEGQNPELLPKTPISPLKTGVSKPIVKSTLSQTVPSKGELSREICLQSQSKDKSTTPGGTGIKPFLERFGERCQEHSKESPARSTPHRTPIITPNTKAIQERLFKQDTSSSTTHLAQQLKQERQKELACLRGRFDKGNIWSAEKGG
notes: also called His-ANLN mutant
